Earlier results on 1 compound are cited in PMC6429159, “Evolution and Biological Evaluation of Matrinic Derivatives with Amantadine Fragments As New Anti-Influenza Virus Agents” (Molecules, 2019).

In the series the test system is influenza virus A/hanfang/359/95 (H3N2). Set-up: method as in PMID 29473520. The note with it: lead 1, value of previous study; read-out: Anti-H3N2 IC50; cited from earlier work.

As for `CCCCC1C2CCCN3CCCC(CN1Cc1ccc(C(=O)O)cc1)C23` (stereo not shown) [Compound 1, 12N-p-carboxybenzyl matrinic butane], the half-maximal inhibitory concentration (IC50) is 16.2 µM.

A word on the IC50: it is the midpoint of a concentration-inhibition curve.
